PubChem BioAssay AID1963434 (Molecular Pharmacology Branch, DTP, NCI, 2024)

Tested on: 755483-174-R-J1-PDC complex spheroid growth, percent test/control
Test: Anticancer human tumor 755483-174-R-J1-PDC patient-derived rhabdomyosarcoma cell line growth inhibition [Asc]
Settings: for IC50: curve of first compound; for viability, T/C: stronger effect = lower value
Procedure, shortened: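 Complex spheroids combining tumor cells with HUVEC endothelial cells and human MSCs, at 37 degrees C, 5% CO2; agents tested alone or combined, half-log dilutions from at or near clinical Cmax, or 10 microM if Cmax unknown.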
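Further: spheroids exposed to compounds for seven days before readout.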

Cc1nc(N2CCC3(CC2)COC(C)C3N)c(CO)nc1Sc1ccnc(N)c1Cl (stereo not given) + CNC(C)C(=O)NC1CN(S(=O)(=O)c2cccc(S(=O)(=O)N3CCC4CCC(C(=O)NC(c5ccccc5)c5ccccc5)N4C(=O)C(NC(=O)C(C)NC)C3)c2)CCC2CCC(C(=O)NC(c3ccccc3)c3ccccc3)N2C1=O
IC50 (second compound 0.01 µM): 103 nM
IC50 (second compound 0.0316 µM): < 9.49 nM
IC50 (second compound 0.1 µM): < 9.49 nM
IC50 (second compound 0.316 µM): < 9.49 nM
IC50 (second compound 1 µM): < 9.49 nM
viability, T/C (second compound 0.01 µM, first compound 0.00949 µM): 46.1%
viability, T/C (second compound 0.01 µM, first compound 0.03 µM): 57.3%
viability, T/C (second compound 0.01 µM, first compound 0.0949 µM): 50.5%
viability, T/C (second compound 0.01 µM, first compound 0.3 µM): 35.6%
viability, T/C (second compound 0.01 µM, first compound 0.949 µM): 23%
viability, T/C (second compound 0.01 µM, first compound 3 µM): 24.7%
viability, T/C (second compound 0.0316 µM, first compound 0.00949 µM): 41.4%
viability, T/C (second compound 0.0316 µM, first compound 0.03 µM): 45.6%
viability, T/C (second compound 0.0316 µM, first compound 0.0949 µM): 40.8%
viability, T/C (second compound 0.0316 µM, first compound 0.3 µM): 32.7%
viability, T/C (second compound 0.0316 µM, first compound 0.949 µM): 23.2%
viability, T/C (second compound 0.0316 µM, first compound 3 µM): 18.2%
viability, T/C (second compound 0.1 µM, first compound 0.00949 µM): 26.6%
viability, T/C (second compound 0.1 µM, first compound 0.03 µM): 45.9%
viability, T/C (second compound 0.1 µM, first compound 0.0949 µM): 20.3%
viability, T/C (second compound 0.1 µM, first compound 0.3 µM): 29.9%
viability, T/C (second compound 0.1 µM, first compound 0.949 µM): 30.1%
viability, T/C (second compound 0.1 µM, first compound 3 µM): 18.5%
viability, T/C (second compound 0.316 µM, first compound 0.00949 µM): 50.1%
viability, T/C (second compound 0.316 µM, first compound 0.03 µM): 32%
viability, T/C (second compound 0.316 µM, first compound 0.0949 µM): 22.1%
viability, T/C (second compound 0.316 µM, first compound 0.3 µM): 24.7%
viability, T/C (second compound 0.316 µM, first compound 0.949 µM): 23.5%
viability, T/C (second compound 0.316 µM, first compound 3 µM): 11.4%
viability, T/C (second compound 1 µM, first compound 0.00949 µM): 17.1%
viability, T/C (second compound 1 µM, first compound 0.03 µM): 16.9%
viability, T/C (second compound 1 µM, first compound 0.0949 µM): 21.7%
viability, T/C (second compound 1 µM, first compound 0.3 µM): 24.9%
viability, T/C (second compound 1 µM, first compound 0.949 µM): 19.1%
viability, T/C (second compound 1 µM, first compound 3 µM): 12.2%

O=C(c1cc(Cc2n[nH]c(=O)c3ccccc23)ccc1F)N1CCN(C(=O)C2CC2)CC1 + Cc1c(S(C)(=O)=O)c(-c2cc(F)cc(N3CCN(c4ccc(NS(=O)(=O)c5ccc(NC(CCN6CCC(C(=O)OCCCP(=O)(O)O)CC6)CSc6ccccc6)c(S(=O)(=O)C(F)(F)F)c5)cc4)CC3)c2)c(-c2ccc(Cl)cc2)n1C(C)C
IC50 (second compound 0.1 µM): < 31.6 nM
IC50 (second compound 0.316 µM): < 31.6 nM
IC50 (second compound 1 µM): < 31.6 nM
IC50 (second compound 3.16 µM): < 31.6 nM
IC50 (second compound 10 µM): < 31.6 nM
viability, T/C (second compound 0.1 µM, first compound 0.0316 µM): 40.4%
viability, T/C (second compound 0.1 µM, first compound 0.1 µM): 35.8%
viability, T/C (second compound 0.1 µM, first compound 0.316 µM): 53%
viability, T/C (second compound 0.1 µM, first compound 1 µM): 47.3%
viability, T/C (second compound 0.1 µM, first compound 3.16 µM): 25.8%
viability, T/C (second compound 0.1 µM, first compound 10 µM): 14.7%
viability, T/C (second compound 0.316 µM, first compound 0.0316 µM): 39.7%
viability, T/C (second compound 0.316 µM, first compound 0.1 µM): 32.4%
viability, T/C (second compound 0.316 µM, first compound 0.316 µM): 28.6%
viability, T/C (second compound 0.316 µM, first compound 1 µM): 25.4%
viability, T/C (second compound 0.316 µM, first compound 3.16 µM): 23.5%
viability, T/C (second compound 0.316 µM, first compound 10 µM): 12.2%
viability, T/C (second compound 1 µM, first compound 0.0316 µM): 32.6%
viability, T/C (second compound 1 µM, first compound 0.1 µM): 38.9%
viability, T/C (second compound 1 µM, first compound 0.316 µM): 24.2%
viability, T/C (second compound 1 µM, first compound 1 µM): 31.6%
viability, T/C (second compound 1 µM, first compound 3.16 µM): 20.4%
viability, T/C (second compound 1 µM, first compound 10 µM): 12.7%
viability, T/C (second compound 3.16 µM, first compound 0.0316 µM): 31%
viability, T/C (second compound 3.16 µM, first compound 0.1 µM): 32.7%
viability, T/C (second compound 3.16 µM, first compound 0.316 µM): 22.9%
viability, T/C (second compound 3.16 µM, first compound 1 µM): 17.6%
viability, T/C (second compound 3.16 µM, first compound 3.16 µM): 14.7%
viability, T/C (second compound 3.16 µM, first compound 10 µM): 8.75%
viability, T/C (second compound 10 µM, first compound 0.0316 µM): 20.1%
viability, T/C (second compound 10 µM, first compound 0.1 µM): 30.2%
viability, T/C (second compound 10 µM, first compound 0.316 µM): 24.1%
viability, T/C (second compound 10 µM, first compound 1 µM): 33.2%
viability, T/C (second compound 10 µM, first compound 3.16 µM): 20.3%
viability, T/C (second compound 10 µM, first compound 10 µM): 9.59%
